What was measured:
Assay in all cases: relative viability (nuclei count vs DMSO), 5 days (fraction); higher = more cells survive
[1] = compound: CCOc1cc2ncc(C#N)c(Nc3ccc(OCc4ccccn4)c(Cl)c3)c2cc1NC(=O)/C=C/CN(C)C [Neratinib] + NC(=O)Nc1cc(-c2cccc(F)c2)sc1C(=O)N[C@H]1CCCNC1 [AZD7762] (partner 0.2 µM)
How it was run: (§1)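 Values are medians from duplicate plates. Each reflects relative viability, defined as the nuclei count of treated wells over that of vehicle wells. Lung cancer cell lines in 1536-well plates were pin-tool dosed one day after seeding with one drug alone or with a fixed anchor-drug dose plus five library-drug doses (not always all listed) in √10 steps, then fixed, stained and imaged at 4× after 5 days.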

[2] = compound: CCOc1cc2ncc(C#N)c(Nc3ccc(OCc4ccccn4)c(Cl)c3)c2cc1NC(=O)/C=C/CN(C)C [Neratinib] + CS(=O)(=O)CCNCc1ccc(-c2ccc3ncnc(Nc4ccc(OCc5cccc(F)c5)c(Cl)c4)c3c2)o1 [Lapatinib] (partner 2 µM)
How it was run: as §1

[3] = compound: CCOc1cc2ncc(C#N)c(Nc3ccc(OCc4ccccn4)c(Cl)c3)c2cc1NC(=O)/C=C/CN(C)C [Neratinib] + O=C(c1cc(Cc2n[nH]c(=O)c3ccccc23)ccc1F)N1CCN(C(=O)C2CC2)CC1 [Olaparib] (partner 8 µM)
How it was run: as §1

[4] = compound: CCOc1cc2ncc(C#N)c(Nc3ccc(OCc4ccccn4)c(Cl)c3)c2cc1NC(=O)/C=C/CN(C)C [Neratinib] + Nc1ncn([C@H]2C[C@H](O)[C@@H](CO)O2)c(=O)n1 [Decitabine] (partner 2 µM)
How it was run: as §1

Cell Line | relative viability ([1]; first compound 0.01 µM) | relative viability ([1]; first compound 0.03162 µM) | relative viability ([1]; first compound 0.1 µM) | relative viability ([1]; first compound 0.3162 µM) | relative viability ([1]; first compound 1 µM) | relative viability ([2]; first compound 0.01 µM) | relative viability ([2]; first compound 0.03162 µM) | relative viability ([2]; first compound 0.3162 µM) | relative viability ([2]; first compound 1 µM) | relative viability ([3]; first compound 0.01 µM) | relative viability ([3]; first compound 0.03162 µM) | relative viability ([3]; first compound 0.1 µM) | relative viability ([3]; first compound 0.3162 µM) | relative viability ([3]; first compound 1 µM) | relative viability ([4]; first compound 0.01 µM) | relative viability ([4]; first compound 0.03162 µM) | relative viability ([4]; first compound 0.1 µM) | relative viability ([4]; first compound 0.3162 µM) | relative viability ([4]; first compound 1 µM) | relative viability ([2]; first compound 0.1 µM)
NCI-H2087 | 1.36 | 1.29 | 0.985 | 1.24 | 0.694 | 1.02 | 0.995 | 0.989 | 0.894 | 0.622 | 0.496 | 0.643 | 0.424 | 0.255 | 0.272 | 0.333 | 0.239 | 0.254 | 0.215 | –
NCI-H2126 | 1.07 | 0.999 | 0.873 | 1 | 0.741 | 0.79 | – | 0.754 | 0.672 | 0.958 | 0.891 | 0.815 | 0.871 | 0.492 | 0.644 | 0.632 | 0.54 | 0.566 | 0.556 | 0.735
NCI-H2170 | 0.816 | 0.549 | 0.515 | 0.177 | 0.159 | 0.284 | 0.278 | 0.301 | 0.255 | 0.627 | 0.49 | 0.32 | 0.151 | 0.158 | 0.548 | 0.457 | 0.412 | 0.213 | 0.18 | 0.289
NCI-H2347 | 0.727 | 0.733 | 0.533 | 0.756 | 0.457 | 0.812 | 1.04 | 0.952 | 0.83 | – | 0.59 | 0.545 | 0.564 | 0.455 | 0.679 | 0.606 | – | 0.545 | 0.633 | 0.94
NCI-H2405 | 0.818 | 0.799 | 0.751 | 0.635 | 0.446 | 1.26 | 1.04 | 1.16 | 0.804 | 0.892 | 0.93 | 0.85 | 0.908 | 0.619 | 0.799 | 0.74 | 0.769 | 0.675 | 0.669 | 1.04
NCI-H3122 | 1.05 | 1 | 0.88 | 1.01 | 0.438 | 1.05 | 1.05 | 1.03 | 0.601 | 0.609 | 0.699 | 0.571 | 0.617 | 0.587 | 0.365 | 0.544 | 0.488 | 0.457 | 0.364 | 0.884
PC-3 [JPC-3] | 0.798 | 0.863 | 0.856 | 0.487 | 0.51 | 0.457 | 0.433 | 0.485 | 0.373 | – | 1.29 | 0.964 | 0.81 | 0.424 | 0.814 | 0.912 | 0.764 | 0.547 | 0.606 | 0.455
PC-14 | 0.366 | 0.41 | 0.36 | 0.242 | 0.134 | 0.365 | 0.327 | 0.285 | 0.302 | 0.188 | 0.344 | 0.37 | 0.233 | 0.102 | 0.217 | 0.285 | 0.241 | 0.194 | 0.108 | 0.267
RERF-LC-KJ | 1.06 | 1.1 | 0.741 | 0.734 | 0.679 | 0.78 | 0.923 | – | 0.915 | 0.925 | 0.911 | 0.828 | 0.848 | 0.468 | 0.777 | 0.744 | 0.618 | 0.72 | 0.457 | 0.854
